Laboratory results taken from patent US20110189293A1, “THERAPEUTIC REGIMENS FOR THE TREATMENT OF IMMUNOINFLAMMATORY DISORDERS” (CombinatoRx, Incoporated, priority 2007, published 2011).

Experiments:
[1] = Equivalent corticosteroid dosing (BNF clinical dosing equivalence); settings: BNF guidelines
Experimental: Equivalent potency in clinical dosing is well known.
The BNF guidelines are included in Table 2 below. More specifically, Table 2 provides doses of corticosteroids equivalent to 5 mg of prednisolone and equivalent to 1 mg of prednisolone when administered in a manner according to this invention.

[2] = cited from earlier work; for Equivalent dose, equal to 5 mg prednisolone: BNF guidelines

Molecule | Equivalent dose, equal to 1 mg prednisolone [1] | Equivalent dose, equal to 5 mg prednisolone [2] | broadly similar dose from clinical dosing equivalence ([2]; nasal administration, BNF 37 March 1999)
CC(=O)OCC(=O)[C@@]12N=C(C)O[C@@H]1C[C@H]1[C@@H]3CCC4=CC(=O)C=C[C@]4(C)[C@H]3[C@@H](O)C[C@@]12C [Deflazacort] | 1.2 mg | 6 mg | 
methyl prednisone | 0.8 mg | 4 mg | 
C[C@]12CCC(=O)C=C1CC[C@@H]1[C@@H]2[C@@H](O)C[C@@]2(C)[C@H]1CC[C@]2(O)C(=O)CO [Hydrocortisone] | 4 mg | 20 mg | 
C[C@]12C=CC(=O)C=C1CC[C@H]1[C@@H]3C[C@@H](O)[C@](O)(C(=O)CO)[C@@]3(C)C[C@H](O)[C@@]12F [Triamcinolone] | 0.8 mg | 4 mg | 110 µg
CC(=O)OCC(=O)[C@@]1(O)CC[C@H]2[C@@H]3CCC4=CC(=O)CC[C@]4(C)[C@H]3C(=O)C[C@@]21C [cortisone acetate] | 5 mg | 25 mg | 
